≈ marks a conversion by molar mass, not a printed value. Where “and” joins values, the source holds several entries; their conditions need not be identical. Identical values can stand only once.
What was measured:
[1] = molecular target: T1, S. aureus ATCC 29213 FabI (Staphylococcus aureus, UniProt Q6GI75); assay: Staphylococcus aureus FabI enzyme inhibition assay; format: biochemical; details: read-out: FabI (300.235) IC50 (converted)
T1 sequence (Q6GI75 1-256): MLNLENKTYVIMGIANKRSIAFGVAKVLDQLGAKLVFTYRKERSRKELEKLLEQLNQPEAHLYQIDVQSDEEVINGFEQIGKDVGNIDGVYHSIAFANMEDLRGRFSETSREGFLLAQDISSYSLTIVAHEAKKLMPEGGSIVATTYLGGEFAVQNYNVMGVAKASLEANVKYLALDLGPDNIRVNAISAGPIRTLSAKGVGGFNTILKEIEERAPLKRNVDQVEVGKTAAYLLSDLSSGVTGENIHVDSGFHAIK
Protocol: Y.1 FabI Enzyme Inhibition: Staphylococcus aureus FabI Enzyme Inhibition Assay
FabI enzyme inhibition assays were carried out in half-area, 384-well microtitre plates. Compounds were evaluated in 40-μl assay mixtures containing 100 mM NaADA, pH 6.5 (ADA=N-[2-acetamido]-2iminodiacetic acid), 250 μM crotonoyl-CoA, 625 μM NADH and 50 μg/ml S. aureus ATCC 29213 FabI. Inhibitors were typically varied over the range of 50 to 0.39 μM. The reaction mixtures were incubated for 30 minutes at room temperature and the reaction was stopped by adding 200 mM Tris buffer (pH 9.0) to create a pH-shift. The consumption of NADH was monitored by measuring the change in absorbance at […]. By comparing sample readings to those of negative (absence of compound) and positive (absence of enzyme) controls, the percent inhibition of enzymatic activity of the compounds was determined A best-fit curve is fitted by a minimum of squares method. From this an IC50-value (expressed in μg/ml), resulting in 50% inhibition of enzymatic activity, was obtained.

[2] = tested on: Staphylococcus aureus ATCC 29213; assay: Antibacterial susceptibility testing, IC90 determination (STA); format: cell-based; details: resazurin; for IC90: Staphylococcus aureus, ATCC29213, Staphylococcus aureus ATCC 29213, broth microdilution, read-out: STA (361.159) IC90
Protocol: (§1) The following bacteria were used: Staphylococcus aureus ATCC 29213, methicillin-resistant Staphylococcus aureus (MRSA) ATCC 700788 and Escherichia coli ATCC 35218. The bacteria used in this study were grown overnight in flasks containing 100 ml Mueller-Hinton broth (Difco cat. nr. 0757-17) in sterile de-ionized water, with shaking, at 37° C. Stocks were store at −70° C. until use.
(§2) Bacteria were incubated on a tryptic soy agar plate containing 5% sheep blood (Becton Dickinson cat. nr. 254053) for 18-24 hours at 35° C. in aerobic conditions (first passage). For the second passage, fresh Mueller-Hinton broth is inoculated with 5-10 colonies and grown overnight at 35° C. until turbidity (reaching log-phase) in aerobic conditions is reached. The bacterial suspension is then adjusted to 0.5 McFarland density and further diluted 1:100 in Mueller Hinton broth medium. This is used as inoculum.
The result(s) are depicted the table below (for STA ATCC 29213).
(§3) MIC assays were performed by the broth microdilution method in a 96-well format (flat-bottom microtitre plates) with a final volume of 0.1 ml Mueller Hinton broth containing two-fold serial dilutions of compounds and inoculated with 5×10^5 CFU/ml of bacteria (standard inoculum size according to CLSI guidelines). Inhibitors are typically varied over the range of 63 to 0.49 μM. The final DMSO concentration in the assay was 1.25% (maximum tolerable DMSO concentration=6%). In the assays where the effect of human serum on the activity of the compounds against S. aureus was tested, human serum was added at a final concentration of 10%. The plates were incubated at 35° C. for 16-20 hours. At the end of incubation the bacterial growth was quantified fluorometrically. For this, resazurin was added to all wells and the plates were re-incubated. The incubation time is dependent on the type of bacteria. A change in color from blue to pink indicated the growth of bacteria. The fluorescence was read in computer-controlled fluorometer (Fluoroskan Ascent FL, Labsystems) at an excitation wavelength 540 nm and an emission wavelength of 590 nm. The % growth inhibition achieved by the compounds was calculated according to standard methods. The IC90 (expressed in μg/ml) was defined as the 90% inhibitory concentration for bacterial growth. A panel of reference compounds were simultaneously tested for QC approval.

S. aureus = assay: Antibacterial susceptibility testing, IC90 determination with 10% human serum (STA + 10% HS); format: cell-based, Staphylococcus aureus; details: Staphylococcus aureus, human serum at final concentration of 10%, read-out: STA + 10% HS (361.169) IC90
Protocol: as §1, §2, §3
The results are depicted in the table(s) below (STA+10% HS).

[3] = Cytotoxicity MTT assay (HELAM); format: cell-based, Human; details: human, HelaM cells, read-out: HELAM (222.125) CC50
Protocol: Cytotoxicity of the compounds was evaluated using the MTT assay. Human HelaM cells grown in 96-well plates were exposed to serial dilutions of the tested compounds (final volume of 0.2 ml) and incubated for 72 hours at 37° C. and 5% CO2. Inhibitors are typically varied over the range of 25 to 0.8 μM. The final DMSO concentration in the assay is 0.5%. MTT (3-(4,5-Dimethylthiazol-2-yl)-2,5-diphenyltetrazolium bromide, a tetrazole) was added and reduced to purple formazan only in living cells. Solubilization of the formazan crystals was achieved by adding 100 μl 2-propanol. Cell viability was determined by measuring the absorbance of the reduced formazan, giving a purple color, at 540 nm and 690 nm. The absorbance measured at 690 nm was automatically subtracted from the absorbance at 540 nm, to eliminate the effects of non-specific absorption. The percent cytotoxicity achieved by the compounds was calculated according to standard methods. Cytotoxicity is reported as CC50, the concentration that causes a 50% reduction in cell viability.
The results are depicted in the table(s) below (HELAM).

Row | SMILES | IC50 [1] [µM] | IC90 [2] [µg/mL] | IC90 (S. aureus) [µg/mL] | CC50 at 72 h [3] [µg/mL] | melting point | STA (361.159) IC90 ([2]; Staphylococcus aureus ATCC 29213, broth microdilution) [µg/mL]
1 | O=C(Nc1ccc(/C=C/C(=O)N2CC3C=C(c4ccccc4)CC3C2)cn1)c1cc(F)c(Cl)nc1Cl (stereo not shown) [compound 29] | 9.32 | > 33 | > 33 | 2.34 (≈ 4.47 µM) |  | 
2 | O=C1Nc2ncc(/C=C/C(=O)N3CC4C=C(c5ccccc5)CC4C3)cc2Cn2cncc21 (stereo not shown) [compound 71] | 1.1 | < 0.21 | < 0.21 | 6.78 (≈ 15.5 µM) |  | 
3 | CC(C)C1Oc2cc(/C=C/C(=O)N3CC4C=C(c5ccccc5)CC4C3)cnc2NC1=O (stereo not shown) [compound 63] | 1.42 | < 0.21 | 0.36 | > 10.8 | 224.9 °C | 
4 | Cc1occc1C(=O)Nc1ccc(/C=C/C(=O)N2CC3C=C(c4ccccc4)CC3C2)cn1 (stereo not shown) [compound 11] | 3.23 | 0.47 (≈ 1.07 µM) | 3.33 | 5.16 (≈ 11.7 µM) | 140 °C | 
5 | N#Cc1cc(NC(=O)c2cccnc2)ncc1/C=C/C(=O)N1CC2C=C(c3ccccc3)CC2C1 (stereo not shown) [compound 27] | 20.9 | > 29.1 | > 29.1 | > 11.6 |  | 
6 | O=C(Nc1ccc(/C=C/C(=O)N2CC3C=C(c4ccccc4)CC3C2)cn1)c1ccccn1 (stereo not shown) [compound 24] | 3.46 | > 27.5 | > 27.5 | 7.76 (≈ 17.8 µM) |  | 
7 | Cn1nccc1C1=CC2CN(C(=O)/C=C/c3cnc4c(c3)OC(C)(C)C(=O)N4)CC2C1 (stereo not shown) [compound 45] |  | < 0.2 | < 0.2 |  |  | 
8 | O=C1Nc2ncc(/C=C/C(=O)N3CC4C=C(c5ccccc5)CC4C3)cc2C(=O)N2CCNCC12 (stereo not shown) [compound 81] |  | 0.45 (≈ 0.958 µM) | 0.43 |  | 230 to 232 °C | 
9 | Cc1cncc(C(=O)Nc2ccc(/C=C/C(=O)N3CC4C=C(c5nccs5)CC4C3)cn2)c1 (stereo not shown) [compound 6] |  | < 0.22 | < 0.22 | > 11.5 | 230.99 °C and 231 °C | 
10 | CN1CC(=O)Nc2ncc(/C=C/C(=O)N3C[C@@H]4CN(c5cccnc5)C[C@@H]4C3)cc2C1 [compound 62] | 7.41 | > 26.4 | > 26.4 | > 10.5 |  | 
11 | COc1cncc(C(=O)Nc2ccc(/C=C/C(=O)N3CC4C=C(c5ccccc5)CC4C3)cn2)c1 (stereo not shown) [Cpd. No. 7] | 2.4 | < 0.22 | 0.42 | > 11.7 |  | 
12 | O=C(Nc1ccc(/C=C/C(=O)N2CC3C=C(c4ccsc4)CC3C2)cn1)c1cccnc1 (stereo not shown) [compound 4] |  | < 0.21 | 0.28 | 0.97 (≈ 2.19 µM) | 236.37 °C and 236 °C | 
13 | C=CCN1C[C@@H]2CN(C(=O)/C=C/c3cnc4c(c3)CN(C)CC(=O)N4)C[C@@H]2C1 [compound 61] | > 50.1 | > 24.1 | > 24.1 | > 9.58 |  | 
14 | Cc1nc(NC(=O)c2cccnc2)ccc1/C=C/C(=O)N1CC2C=C(c3ccccc3)CC2C1 (stereo not shown) [compound 25] | 14.4 | > 28.4 | > 28.4 | > 11.3 |  | 
15 | N#Cc1cc(N)ncc1/C=C/C(=O)N1CC2C=C(c3ccccc3)CC2C1 (stereo not shown) [compound 22] | ~33.9 | > 22.5 | > 22.5 | > 8.95 |  | 
16 | O=C1Nc2ncc(/C=C/C(=O)N3CC4C=C(c5ccccc5)CC4C3)cc2Cn2nccc21 (stereo not shown) [compound 86] | 1.83 | 3.47 (≈ 7.93 µM) | 3.81 |  |  | 

Row | SMILES | IC50 [1] [µM] | IC90 [2] [µg/mL] | IC90 (S. aureus) [µg/mL] | CC50 at 72 h [3] [µg/mL] | melting point | STA (361.159) IC90 ([2]; Staphylococcus aureus ATCC 29213, broth microdilution) [µg/mL]
17 | COc1nc(NC(C)=O)ccc1/C=C/C(=O)N1CC2C=C(c3ccccc3)CC2C1 (stereo not shown) [compound 23] | 15.5 | > 25.5 | > 25.5 | > 10.1 |  | 
18 | CC1(C)Oc2cc(/C=C/C(=O)N3CC4C=C(c5nccs5)CC4C3)cnc2NC1=O (stereo not shown) [compound 44] |  | < 0.2 | < 0.2 |  |  | 
19 | O=C1CNCc2cc(/C=C/C(=O)N3C[C@H]4CC(c5ccccc5)=C[C@H]4C3)cnc2N1 (single isomer, unassigned) [compound 46] | 0.924 | 0.23 (≈ 0.574 µM) | 0.27 | > 4.05 |  | 
20 | CC1(C)Oc2cc(/C=C/C(=O)N3CC4C=C(c5ccccc5)CC4C3)cnc2NC1=O (stereo not shown) [compound 42] |  | < 0.2 | < 0.2 |  |  | 
21 | O=C1Nc2ncc(/C=C/C(=O)N3C[C@@H]4CN(c5ccccc5)C[C@@H]4C3)cc2CN2CCOCC12 (stereo partly shown) [compound 87] |  |  |  |  | > 250 °C | 
22 | Cc1nc(N)ccc1/C=C/C(=O)N1CC2C=C(c3ccccc3)CC2C1 (stereo not shown) [compound 21] | 6.77 | > 21.8 | > 21.8 | 3.11 (≈ 9 µM) |  | 
23 | O=C(Nc1ncc(/C=C/C(=O)N2CC3C=C(c4ccccc4)CC3C2)cc1CN1CCOCC1)c1cccnc1 (stereo not shown) [compound 34] | 2.95 | > 33.8 | > 33.8 | 12.6 (≈ 23.4 µM) |  | 
24 | COc1ccc(C(=O)Nc2ccc(/C=C/C(=O)N3CC4C=C(c5ccccc5)CC4C3)cn2)c(OC)n1 (stereo not shown) [compound 28] | 14.8 | > 31.3 | > 31.3 | 2.99 (≈ 6.02 µM) |  | 
25 | O=C1CNCc2cc(/C=C/C(=O)N3CC4C=C(c5ccsc5)CC4C3)cnc2N1 (stereo not shown) [compound 40] | 0.959 | < 0.19 | < 0.19 | > 10.2 |  | 
26 | O=C1Nc2ncc(/C=C/C(=O)N3CC4C=C(c5ccccc5)CC4C3)cc2Cn2cncc21 (stereo not shown) [Compound K11] |  |  |  |  | 220 to 270 °C | 
27 | CC(=O)N1CCN2Cc3cc(/C=C/C(=O)N4CC5C=C(c6ccncc6)CC5C4)cnc3NC(=O)C2C1 (stereo not shown) [compound 84] | 1.34 | 0.92 (≈ 1.85 µM) | 0.87 | > 12.5 |  | 
28 | CC1(C)Oc2cc(/C=C/C(=O)N3CC4C=C(c5ccccc5)CC4C3)cnc2NC1=O (stereo not shown) [compound 43] |  |  |  |  |  | <0.20
29 | Cc1cc(N)ncc1/C=C/C(=O)N1CC2C=C(c3ccccc3)CC2C1 (stereo not shown) [compound 20] | 8.31 | > 21.8 | > 21.8 | 4.55 (≈ 13.2 µM) |  | 
30 | CCOC(=O)N1CCN2Cc3cc(/C=C/C(=O)N4CC5C=C(c6ccccc6)CC5C4)cnc3NC(=O)C2C1 (stereo not shown) [compound 88] |  |  |  |  | 242 to 267 °C | 
31 | Cc1cc(NC(=O)c2cccnc2)ncc1/C=C/C(=O)N1CC2C=C(c3ccccc3)CC2C1 (stereo not shown) [compound 26] | 10.2 | > 28.4 | > 28.4 | > 11.3 |  | 
